In patent publication US11279714B2, “Anti-infective compounds” (priority 2014, dated 2022):
≈ marks a conversion by molar mass, not a printed value.

Key:
[1] = tested on: M. tuberculosis H37Rv expressing the green fluorescent protein (H37Rv-GFP); assay: microbe, parasite or virus in culture; type: cell-based; conditions: Mycobacterium tuberculosis, H37RV, 120 h; read-out: QUM (MIC50)
[2] = tested on: Raw 264.7 cells infected with H37Rv-GFP; assay: microbe, parasite or virus in culture; type: cell-based, M. tuberculosis; conditions: Mycobacterium tuberculosis, H37RV, 120 h; read-out: QIM (MIC50)

SMILES	MIC50 [1]	melting point	MIC50 [2]
COc1cc(NC(=O)c2cc3nc(N4CCCCC4)sc3s2)cc(OC)c1 [Compound 4]	> 20 µM	231.2 °C	> 20 µM
O=C(Nc1ccc(F)cc1)c1cc2sc(N3CCCCC3)nc2s1 [Compound 53]	< 1 µM	233 °C	< 1 µM
O=C(Nc1ccc(F)nc1)c1cc2sc(N3CCOCC3)nc2s1 [Compound 84]	< 1 µM	262.3 °C	< 1 µM
CC(=O)c1ccc(NC(=O)c2cc3sc(N4CCOCC4)nc3s2)cc1 [Compound 188]	< 1 µM	248 °C	< 1 µM
O=C(Nc1ccc(C(F)(F)F)cc1)c1cc2sc(N3CCOCC3)nc2s1 [Compound 107]	> 20 µM	259.3 °C	< 1 µM
COc1ncc(NC(=O)c2cc3nc(N4CCCCC4)sc3s2)cn1 [Compound 6]	1 to 20 µM (≈ 0.375 to 7.51 µg/mL)	274 °C	1 to 20 µM (≈ 0.375 to 7.51 µg/mL)
COc1ccc(CNC(=O)c2cc3nc(N4CCCCC4)sc3s2)cc1 [Compound 7]	> 20 µM	179 °C	> 20 µM
CN(C)C(=O)C1CCN(c2nc3sc(C(=O)Nc4ccc5oc(-c6ccc(F)cc6)nc5c4)cc3s2)CC1 [Compound 171]	> 20 µM	323 °C	< 1 µM
O=C(Nc1ccc(F)c(F)c1)c1cc2sc(N3CCCCC3)nc2s1 [Compound 36]	1 to 20 µM (≈ 0.379 to 7.59 µg/mL)	218 °C	< 1 µM
COc1ccc(NC(=O)c2cc3sc(N4CCCCC4)nc3s2)cc1 [Compound 35]	< 1 µM	235 °C	< 1 µM
O=C(Nc1ccc(F)cc1)c1cc2sc(N3CCNCC3)nc2s1 [Compound 139]	1 to 20 µM (≈ 0.362 to 7.25 µg/mL)	247.5 °C	1 to 20 µM (≈ 0.362 to 7.25 µg/mL)
COc1ccc(NC(=O)c2cc3sc(N4CCCC(O)C4)nc3s2)cc1 (stereo not drawn) [Compound 96]	< 1 µM	238 °C	< 1 µM
O=C(Nc1ccc(F)cc1)c1cc2nc(N3CCCCC3)sc2s1 [Compound 8]	1 to 20 µM (≈ 0.361 to 7.23 µg/mL)	218 °C	1 to 20 µM (≈ 0.361 to 7.23 µg/mL)
CC(C)(C)OC(=O)Nc1cc2sc(N3CCCCC3)nc2s1 [Compound 81]	> 20 µM	157 °C	> 20 µM
COc1ccc(NC(=O)c2cc3sc(N4CCCC(N)C4)nc3s2)cc1 (stereo not drawn) [Compound 119]	> 20 µM	232 °C	< 1 µM
Cc1nnc(-c2ccc(NC(=O)c3cc4sc(N5CCOCC5)nc4s3)cc2Cl)o1 [Compound 148]	> 20 µM	248 °C	> 20 µM
COc1ccc(NC(=O)c2cc3sc(N4CCC(C(=O)N5CCOCC5)CC4)nc3s2)cc1 [Compound 125]	< 1 µM	268 °C	< 1 µM
COc1ccc(NC(=O)c2cc3sc(N4CCCC(OCc5ccccc5)C4)nc3s2)cc1 (stereo not drawn) [Compound 95]	> 20 µM	169 °C	< 1 µM
O=C(Nc1ccccc1)c1cc2sc(N3CCCCC3)nc2s1 [Compound 46]	1 to 20 µM (≈ 0.343 to 6.87 µg/mL)	259.1 °C	< 1 µM
N#Cc1ccc(NC(=O)c2cc3sc(N4CCOCC4)nc3s2)cc1 [Compound 112]	> 20 µM	212 °C	< 1 µM
Cc1nc2cc(NC(=O)c3cc4sc(N5CCC(COc6ccc(Cl)cc6)CC5)nc4s3)ccc2o1 [Compound 195]	> 20 µM	256 °C	< 1 µM
O=C(Nc1ccc(N2CCC(c3ccc(Cl)cc3)CC2)cc1)c1cc2sc(N3CCOCC3)nc2s1 [Compound 190]	> 20 µM	281.1 °C	> 20 µM
O=C(Nc1ccccc1)c1cc2nc(N3CCCCC3)sc2s1 [Compound 25]	> 20 µM	222.6 °C	1 to 20 µM (≈ 0.343 to 6.87 µg/mL)
O=C(Nc1ccc(F)cc1)c1cc2sc(N3CCC(O)CC3)nc2s1 [Compound 134]	< 1 µM	241.7 °C	< 1 µM
O=C(c1cc2nc(N3CCCCC3)sc2s1)N1CCOCC1 [Compound 26]	> 20 µM	188 °C	> 20 µM
O=C(Nc1ccc(F)nc1)c1cc2sc(N3CCC(CO)CC3)nc2s1 [Compound 143]	< 1 µM	240.8 °C	< 1 µM
COc1ccc(NC(=O)c2cc3sc(C(C)C)nc3s2)cc1 [Compound 115]	1 to 20 µM (≈ 0.332 to 6.65 µg/mL)	149 °C	< 1 µM
COc1ccc(OC(=O)c2ccc(NC(=O)c3cc4sc(N5CCOCC5)nc4s3)cc2)cc1 [Compound 111]	1 to 20 µM (≈ 0.496 to 9.91 µg/mL)	302.6 °C	< 1 µM
O=C(Nc1ccc(N2CCC(Cc3ccc(F)cc3)CC2)cc1)c1cc2sc(N3CCOCC3)nc2s1 [Compound 183]	> 20 µM	246 °C	< 1 µM
